Source: patent publication US4436733A, “4"- And 3-ester derivatives of DMT and DMOT” (Eli Lilly and Company, priority 1982, dated 1984)
Where two headings read alike, the source gives them in different places.

What was measured:
[1] = system: Staphylococcus aureus S13E; test: standard agar-dilution assay, MIC; format: cell-based
Protocol: (§1) The MIC's in Table III were determined by standard agar-dilutionassays. The MIC's in Table IV were obtained using a conventional broth-dilution microtiter test.

[2] = system: Staphylococcus aureus X1.1; test: standard agar-dilution assay, MIC; format: cell-based
Protocol: as §1

[3] = system: Staphylococcus epidermidis EPI1; test: standard agar-dilution assay, MIC; format: cell-based
Protocol: as §1

[4] = system: Staphylococcus epidermidis EPI2; test: standard agar-dilution assay, MIC; format: cell-based
Protocol: as §1

Streptococcus Group 9960 = test: standard agar-dilution assay, MIC; format: cell-based
Protocol: as §1

[5] = system: Streptococcus Group D X66; test: standard agar-dilution assay, MIC; format: cell-based
Protocol: as §1

[6] = system: Streptococcus pneumoniae Park I; test: standard agar-dilution assay, MIC; format: cell-based
Protocol: as §1

[7] = system: Streptococcus pyogenes C203; test: standard agar-dilution assay, MIC; format: cell-based
Protocol: as §1

[8] = system: Staphylococcus aureus V41; test: standard agar-dilution assay, MIC; format: cell-based; conditions: Staphylococcus aureus V41, penicillin resistant strain
Protocol: as §1
^b Penicillinresistant strain

[9] = system: Staphylococcus aureus X400; test: standard agar-dilution assay, MIC; format: cell-based; conditions: Staphylococcus aureus X400, methicillin resistant strain
Protocol: as §1
^c Methicillinresistant-strain

[10] = system: Haemophilus influenzae Holt; test: standard agar-dilution assay, MIC; format: cell-based; conditions: ampicillin sensitive strain
Protocol: as §1
^d Ampicillinsensitive strain

[11] = system: Haemophilus influenzae R252; test: standard agar-dilution assay, MIC; format: cell-based; conditions: Haemophilus influenzae R252, ampicillin resistant strain
Protocol: as §1
^e Ampicillinresistant strain

Mycoplasma gallisepticum = test: conventional broth-dilution microtiter test, MIC; format: cell-based
Protocol: as §1

Mycoplasma hyorhinis = test: conventional broth-dilution microtiter test, MIC; format: cell-based
Protocol: as §1

Mycoplasma synoviae = test: conventional broth-dilution microtiter test, MIC; format: cell-based
Protocol: as §1

[12] = system: Pasteurella multocida 17E; test: conventional broth-dilution microtiter test, MIC; format: cell-based; conditions: bovine isolate
Protocol: as §1

[13] = system: Pasteurella multocida 60A; test: conventional broth-dilution microtiter test, MIC; format: cell-based; conditions: avian isolate
Protocol: as §1

Staphylococcus aureus = test: conventional broth-dilution microtiter test, MIC; format: cell-based
Protocol: as §1

Streptococcus sp. 80 = test: conventional broth-dilution microtiter test, MIC; format: cell-based
Protocol: as §1

[14] = system: Streptococcus pyogenes C203; test: experimental bacterial infection in mice, ED50; format: in vivo; conditions: doses given 1 and 5 hours postinfection, read-out: ED50 (effective dose to protect 50% of the test animals)
Protocol: The ester derivatives of this invention have shown in vivo antimicrobial activity against experimental bacterial infections caused by gram-positivebacteria. When two doses of test compound were administered to mice with experimental infections, the activity observed was measured as an ED50 value [effective dose in mg/kg to protect 50% of the test animals: see Warren Wick, et al., J. Bacteriol. 81, 233-235 (1961)].
^a mg/kg × 2; doses given 1 and 5 hours postinfection

Structure (SMILES) | MIC (minimal inhibitory concentration) [1] | MIC (minimal inhibitory concentration) [2] | MIC (minimal inhibitory concentration) [3] | MIC (minimal inhibitory concentration) [4] | MIC (minimal inhibitory concentration) (Streptococcus Group 9960) | MIC (minimal inhibitory concentration) [5] | MIC (minimal inhibitory concentration) [6] | MIC (minimal inhibitory concentration) [7] | MIC (minimal inhibitory concentration) [8] | MIC (minimal inhibitory concentration) [9] | MIC (minimal inhibitory concentration) [10] | MIC (minimal inhibitory concentration) [11] | MIC (minimal inhibitory concentration) (Mycoplasma gallisepticum) | MIC (minimal inhibitory concentration) (Mycoplasma hyorhinis) | MIC (minimal inhibitory concentration) (Mycoplasma synoviae) | MIC (minimal inhibitory concentration) [12] | MIC (minimal inhibitory concentration) [13] | MIC (minimal inhibitory concentration) (Staphylococcus aureus) | MIC (minimal inhibitory concentration) (Streptococcus sp. 80) | also measured
CCC1OC(=O)CC(O)C(C)C(OC2OC(C)C(OC3CC(C)(O)C(OC(=O)CC(C)C)C(C)O3)C(N(C)C)C2O)C(CC=O)CC(C)C(=O)C=CC(C)=CC1C (stereo not drawn) [Compound 19, 4"-O-Isovaleryl-DMOT] | 1 | 1 | 1 | 1 | 1 | 1 | 0.03 | 0.25 | 1 | 1 | 8 | 8 | 0.195 | 0.39 | 0.39 | 6.25 | 12.5 | 3.12 | 0.195 | –
CCC1OC(=O)CC(OC(=O)C(Cl)(Cl)Cl)C(C)C(OC2OC(C)C(OC3CC(C)(O)C(OC(=O)C(Cl)(Cl)Cl)C(C)O3)C(N(C)C)C2OC(C)=O)C(CC=O)CC(C)C(=O)C=CC(C)=CC1COC(=O)C(Cl)(Cl)Cl (stereo not drawn) [Compound 13, 2'-O-acetyl-3,23,4"-tri-O-trichloroacetyl-DMT] | 8 | 8 | 8 | 16 | 16 | 16 | 2 | 8 | 16 | 16 | 128 | 128 | – | – | – | – | – | – | – | –
CCC1OC(=O)CC(OC(=O)C(Cl)(Cl)Cl)C(C)C(OC2OC(C)C(OC3CC(C)(O)C(O)C(C)O3)C(N(C)C)C2OC(C)=O)C(CC=O)CC(C)C(=O)C=CC(C)=CC1COC(=O)C(Cl)(Cl)Cl (stereo not drawn) [Compound 12, 2'-O-acetyl-3,23-di-O-trichloroacetyl-DMT] | 1 | 1 | 1 | 2 | 2 | 2 | 0.125 | 0.5 | 2 | 2 | 32 | 16 | – | – | – | – | – | – | – | –
CCC1OC(=O)CC(O)C(C)C(OC2OC(C)C(OC3CC(C)(O)C(OC(=O)CC(C)C)C(C)O3)C(N(C)C)C2OC(C)=O)C(CC=O)CC(C)C(=O)C=CC(C)=CC1C (stereo not drawn) [Compound 18, 2'-O-Acetyl-4"-O-Isovaleryl-DMOT] | 1 | 1 | 1 | 2 | 1 | 1 | 0.06 | 0.5 | 1 | 1 | 32 | 32 | 0.39 | 0.78 | – | 12.5 | > 50 | 0.78 | 0.39 | –
CCC(=O)OC1C(C)OC(OC2C(C)OC(OC3C(CC=O)CC(C)C(=O)C=CC(C)=CC(CO)C(CC)OC(=O)CC(O)C3C)C(O)C2N(C)C)CC1(C)O (stereo not drawn) [Compound 16, 4"-O-Propionyl-DMT] | 0.5 | 0.5 | 0.5 | 1 | 0.5 | 0.5 | 0.06 | 0.125 | 0.5 | 1 | 4 | 2 | – | – | – | – | – | – | – | –
CCC1OC(=O)CC(O)C(C)C(OC2OC(C)C(OC3CC(C)(O)C(OC(=O)C(Cl)(Cl)Cl)C(C)O3)C(N(C)C)C2OC(C)=O)C(CC=O)CC(C)C(=O)C=CC(C)=CC1COC(=O)C(Cl)(Cl)Cl (stereo not drawn) [Compound 11, 2'-O-acetyl-23,4"-di-O-trichloroacetyl-DMT] | 4 | 4 | 2 | 4 | 4 | 4 | 0.25 | 2 | 8 | 8 | 32 | 16 | – | – | – | – | – | – | – | –
CCC(=O)OCC1C=C(C)C=CC(=O)C(C)CC(CC=O)C(OC2OC(C)C(OC3CC(C)(O)C(OC(=O)CC)C(C)O3)C(N(C)C)C2O)C(C)C(OC(=O)CC)CC(=O)OC1CC (stereo not drawn) [Compound 10, 3,23,4"-Tri-O-Propionyl-DMT] | 0.5 | 0.5 | 1 | 2 | 1 | 1 | 0.125 | 0.25 | 1 | 1 | – | – | ≤ 0.05 | 0.78 | 0.39 | 25 | 50 | 1.56 | 1.56 | ED50 ([14]; C203, mice, oral): > 150 mg/kg; ED50 ([14]; C203, sc, mice, subcutaneous): 13 mg/kg
CCC(=O)OC1C(C)OC(OC2C(C)OC(OC3C(CC=O)CC(C)C(=O)C=CC(C)=CC(C)C(CC)OC(=O)CC(O)C3C)C(OC(C)=O)C2N(C)C)CC1(C)O (stereo not drawn) [Compound 22, 2'-O-Acetyl-4"-O-Propionyl-DMOT] | 0.5 | 0.25 | 0.5 | 1 | 0.5 | 0.5 | 0.125 | 0.25 | 0.5 | 0.5 | – | – | 0.195 | 1.56 | 0.78 | 25 | 25 | 3.12 | 1.56 | ED50 ([14]; C203, mice, oral): 91 mg/kg; ED50 ([14]; C203, sc, mice, subcutaneous): > 30 mg/kg
